Laboratory results published in article PMC12066474, “Ex vivo quantification of intracellular pH in Drosophila Malpighian tubule reveals basolateral HCO3 ^−/oxalate exchange through a novel oxalate transporter “Neat”” (Frontiers in Physiology, 2025).

Target: T1, Neat (CG5002) (Drosophila melanogaster, UniProt Q7K4I4)
T1 construct: coding region in pGEMHE, cRNA expressed in Xenopus laevis oocytes
T1 sequence (Q7K4I4 1-595): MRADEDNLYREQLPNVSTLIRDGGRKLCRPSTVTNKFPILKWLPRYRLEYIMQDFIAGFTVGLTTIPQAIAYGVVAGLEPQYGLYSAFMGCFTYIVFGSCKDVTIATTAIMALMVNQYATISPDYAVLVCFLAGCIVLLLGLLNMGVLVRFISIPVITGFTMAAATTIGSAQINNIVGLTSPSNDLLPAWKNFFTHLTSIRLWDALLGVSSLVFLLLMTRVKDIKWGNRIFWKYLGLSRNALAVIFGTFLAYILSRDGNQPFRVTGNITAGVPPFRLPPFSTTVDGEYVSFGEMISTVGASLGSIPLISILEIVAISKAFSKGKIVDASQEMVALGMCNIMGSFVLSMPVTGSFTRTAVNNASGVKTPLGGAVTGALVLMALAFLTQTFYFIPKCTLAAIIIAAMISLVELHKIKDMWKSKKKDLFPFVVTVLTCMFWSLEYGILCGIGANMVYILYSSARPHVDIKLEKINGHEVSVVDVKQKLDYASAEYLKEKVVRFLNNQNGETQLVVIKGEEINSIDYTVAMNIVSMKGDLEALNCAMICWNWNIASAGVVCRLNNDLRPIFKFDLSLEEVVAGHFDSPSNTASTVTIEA
Type: cell-based
Details: 5% CO2/33 mM HCO3−, pH 7.5

SMILES: O=C(O)O [HCO3 ^−]
- intracellular pH microelectrode in Xenopus oocytes: Neat demonstrated electroneutral HCO3 ^− influx in the presence of HCO3 ^−/CO2 buffered saline
